In patent publication US5888999A, “Method for treating anxiety with muscarinic cholinergic receptor agonists” (Eli Lilly and Company, priority 1997, dated 1999):

Biological target: muscarinic acetylcholine receptors
Assay: inhibition of specific binding of ^3 H-Oxotremorine-M (^3 H-Oxo) to rat cortex
Set-up: species or system rat (male Wistar)
Conditions: ^3 H-Oxotremorine 1.0 nM, 30 min, 25° C.
Source text: The pharmacological properties of the compounds of the invention can be illustrated by determining their capability to inhibit the specific binding of ^3 H-Oxotremorine-M (^3 H-Oxo). Birdsdall N. J. M., Hulme E. C., and Burgen A. S. V. (1980). "The Character of Muscarinic Receptors in Different Regions of the Rat Brain". Proc. Roy. Soc. London (Series B) 207,1.
^3 H-Oxo labels muscarinic receptor in the CNS (with a preference for agonist domains of the receptors). Three different sites are labeled by ^3 H-Oxo. […] Using the present experimental conditions only the high and medium affinity sites are determined.
The inhibitory effects of compounds on ^3 H-oxo binding reflects the affinity for muscarinic acetylcholine receptors.
All preparations are performed at 0°-4° C. unless otherwise indicated. Fresh cortex (0.1-1 g) from male Wistar rats (150-250 g) is homogenized for 5-10 s in 10 mL […] Hepes pH: 7.4, with an Ultra-Turrax homogenizer. The homogenizer is rinsed with 10 mL of buffer and the combined suspension centrifuged for 15 min. at 40,000×g. The pellet is washed three times with buffer. In each step the pellet is homogenized as before in 2×10 mL of buffer and centrifuged for 10 min. at 40,000×g.
The final pellet is homogenized in 20 mM Hepes pH: 7.4 (100 mL per g of original tissue) and used for binding assay. Aliquots of 0.5 mL is added 25 μL of test solution and 25 μL of ^3 H-Oxotremorine (1.0 nM, final concentration) mixed and incubated for 30 min. at 25° C. Non-specific binding is determined in triplicate using arecoline (1 μg/mL, final concentration) as the test substance. After incubation samples are added 5 mL of ice-cold buffer and poured directly onto Whatman GF/C glass fiber filters under suction and immediately washed 2 times with 5 mL of ice-cold buffer. The amount of radioactivity on the filters are determined by conventional liquid scintillation counting. Specific binding is total binding minus non specific binding.
Test substances are dissolved in 10 mL water (if necessary heated on a steam-bath for less than 5 min.) at a concentration of 2.2 mg/mL. 25-75% inhibition of specific binding must be obtained before calculation of IC50. The test value will be given as IC50 (the concentration (nM) of the test substance which inhibits the specific binding of ^3 H-oxo by 50%).
IC50 =(applied test substance concentration)×(Cx /Co
where Co is specific binding in control assays and Cx is the specific binding in the test assay. (The calculations assume normal mass-action kinetics).

Structure (SMILES)	IC50 [nM]
Clc1cncc(O[C@H]2CN3CCC[C@@H]2C3)n1 (relative stereo) [Compound 22, 6-Chloro-2-[endo-(+,-)-6-(1-azabicyclo[3.2.1]octyloxy)]-pyrazine]	140
Cc1nccnc1O[C@H]1CN2CCC[C@@H]1C2 (relative stereo) [Compound 20, 3-Methyl-2-[endo-(+,-)-6-(1-azabicyclo[3.2.1]octyloxy)]-pyrazine]	245
CCCSc1nccnc1O[C@H]1CN2CCC[C@@H]1C2 (relative stereo) [Compound 29, (±)-endo-2-Propylthio-3-(1-azabicyclo[3.2.1]octyl-6-oxy)pyrazine]	1.7
CC(C)=CCCSc1nccnc1O[C@H]1CN2CCC[C@@H]1C2 (relative stereo) [Compound 43, (±)-endo-2-(4-Methyl-3-pentenylthio)-3-(1-azabicyclo[3.2.1]octyl-6-oxy)pyrazine]	8.1
FC(F)(F)CCCSc1nccnc1O[C@H]1CN2CCC[C@@H]1C2 (relative stereo) [Compound 35, (±)-endo-2-(4,4,4-Trifluorobutylthio)-3-(1-azabicyclo[3.2.1]octyl-6-oxy)pyrazine]	3.2
CCSc1nccnc1OC1CN2CCC1CC2 (racemic) [Compound 14, (+/-)-3-Ethylthio-2-(1-azabicyclo[2.2.2]octyl-3-oxy)pyrazine]	26
CCCCSc1nccnc1O[C@H]1CN2CCC[C@@H]1C2 (relative stereo) [Compound 24, 3-(1-butylthio)-2-[endo-(+,-)-6-(1-azabicyclo[3.2.1]octyloxy)]-pyrazine]	2.2
COCCSc1nccnc1O[C@H]1CN2CCC[C@@H]1C2 (relative stereo) [Compound 41, (±)-endo-2-(2-methoxyethylthio)-3-(1-azabicyclo[3.2.1octyl-6-oxy)pyrazine]	3.2
CN1[C@@H]2CC[C@H]1C[C@@H](Oc1cnccn1)C2 [Compound 25, endo-(8-methyl-8-azabicyclo[3.2.1]octyl-3-oxy)pyrazine]	180
CN(C)CCOc1cnccn1 [Compound 26, 2-(2-Dimethylaminoethoxy)pyrazine]	> 1000
CCCCCCSc1nccnc1OC1CN2CCC1CC2 (racemic) [Compound 12, (+/-)-3-(1-Hexylthio)-2-(1-azabicyclo[2.2.2]octyl-3-oxy)pyrazine]	25
Clc1nccnc1O[C@H]1CN2CCC[C@@H]1C2 (relative stereo) [Compound 19, 3-Chloro-2-[endo-(+,-)-6-(1-azabicyclo[3.2.1]octyloxy)]-pyrazine]	121
c1cnc(OC2CN3CCC2CC3)cn1 (racemic) [Compound 8, (+/-)-2-(1-Azabicyclo[2.2.2]octyl-3-oxy)pyrazine]	1040
CC(C)CCSc1nccnc1O[C@H]1CN2CCC[C@@H]1C2 (relative stereo) [Compound 37, (±)-endo-2-(3-Methylbutylthio)-3-(1-azabicyclo[3.2.1]octyl-6-oxy)pyrazin]	1.3
c1cnc(O[C@H]2CN3CCC[C@@H]2C3)cn1 [Compound 21, 2-[endo-(+,-)-6-(1-azabicyclo[3.2.1]octyloxy)]-pyrazine]	26
C=CCSc1nccnc1O[C@H]1CN2CCC[C@@H]1C2 (relative stereo) [Compound 36, (±)-endo-2-(2-propenylthio)-3-(1-azabicyclo[3.2.1]octyl-6-oxy)pyrazine]	0.34
CCSc1nccnc1O[C@H]1CN2CCC[C@@H]1C2 (relative stereo) [Compound 32, (±)-endo-2-Ethylthio-3-(1-azabicyclo[3.2.1]octyl-6-oxy)pyrazine]	3.9
CCCCCCCSc1nccnc1OC1CN2CCC1CC2 (racemic) [Compound 16]	39
CN1CCC[C@H]1COc1cnccn1 [Compound 28, (S)-2-(1-Methyl-2-pyrrolidinylmethoxy)pyrazine]	> 10000

Structure (SMILES)	IC50 [nM]
CCCCCOc1nccnc1OC1CN2CCC1CC2 (racemic) [Compound 9, (+/-)-3-(1-Pentyloxy)-2-(1-azabicyclo[2.2.2]octyl-3-oxy)pyrazine]	36
CCCCCSc1nccnc1O[C@H]1CN2CCC[C@@H]1C2 (relative stereo) [Compound 30, (±)-endo-2-Pentylthio-3-(1-azabicyclo[3.2.1]octyl-6-oxy)pyrazine]	4.4
CCCCOc1nccnc1O[C@H]1CN2CCC[C@@H]1C2 (relative stereo) [Compound 23, 3-(1-butyloxy)-2-[endo-(+,-)-6-(1-azabicyclo[3.2.1]octyloxy)]-pyrazine]	4.9
CCCCCSc1nccnc1OC1CN2CCC1CC2 (racemic) [Compound 7, (+/-)-3-Pentylthio-2-(1-azabicyclo[2.2.2]octyl-3-oxy)pyrazine]	16
C[N+](C)(C)CCOc1cnccn1 [Compound 27, 2-(2-Trimethylaminoethoxy)pyrazine iodide]	> 1000
CCCCSc1nccnc1OCC[N+](C)(C)C [Compound 18, 3-(1-Butylthio)-2-(2-(trimethylamino)ethoxy)pyrazine iodide]	21
CCOc1nccnc1OC1CN2CCC1CC2 (racemic) [Compound 11]	56
C(=Cc1ccccc1)CSc1nccnc1O[C@H]1CN2CCC[C@@H]1C2 (relative stereo) [Compound 42, (±)-endo-2-(3-Phenyl-2-propenylthio)-3-(1-azabicyclo[3.2.1]octyl-6-oxy)pyrazine]	9.1
FC(F)(F)Oc1ccc(CSc2nccnc2O[C@H]2CN3CCC[C@@H]2C3)cc1 (relative stereo) [Compound 38, (±)-endo-2-(4-Trifluoromethoxybenzylthio)-3-(1-azabicyclo[3.2.1]octyl-6-oxy)pyrazine]	6.2
CSc1nccnc1OC1CN2CCC1CC2 (racemic) [Compound 13, (+/-)-3-Methylthio-2-(1-azabicyclo[2.2.2]octyl-3-oxy)pyrazine]	74
FC(F)(F)CSc1cncc(O[C@H]2CN3CCC[C@@H]2C3)n1 (relative stereo) [Compound 40, (±)-endo-2-(2.2.2-Trifluoroethylthio)-6-(1-azabicyclo[3.2.1]octyl-6-oxy)pyrazine]	60
FC(F)(F)CSc1nccnc1O[C@H]1CN2CCC[C@@H]1C2 (relative stereo) [Compound 33, (±)-endo-2-(2,2,2,-Trifluoroethylthio)-3-(1-azabicyclo[3.2.1]octyl-6-oxy)pyrazine]	1.5
COc1nccnc1OC1CN2CCC1CC2 (racemic) [Compound 10, (+/-)-3-Methoxy-2-(1-azabicyclo[2.2.2]octyl-3-oxy)pyrazine]	354
CCCSc1cncc(O[C@H]2CN3CCC[C@@H]2C3)n1 (relative stereo) [Compound 39, (±)-endo-2-Propylthio-6-(1-azabicyclo[3.2.1]octyl-6-oxy)pyrazine]	10
CC(C)CSc1nccnc1O[C@H]1CN2CCC[C@@H]1C2 (relative stereo) [Compound 31, (±)-endo-2-(2-Methylpropylthio)-3-(1-azabicyclo[3.2.1]octyl-6-oxy)-pyrazine]	3.4
C/C=C/CSc1nccnc1O[C@H]1CN2CCC[C@@H]1C2 (relative stereo) [Compound 34, (±)-endo-2-(trans-2-Butenylthio)-3-(1-azabicyclo[3.2.1]octyl-6-oxy)pyrazine]	2
CCCCSc1nccnc1OCCN(C)C [Compound 17]	17
CCCSc1nccnc1OC1CN2CCC1CC2 (racemic) [Compound 15]	14

Test system: dopamine receptors
Assay: not given
Conditions: only at the 5-HT1A and dopamine receptors; cited from earlier work

Structure (SMILES)	interaction at dopamine receptors
O=C1CC2(CCCC2)CC(=O)N1CCCCN1CCN(c2ncccn2)CC1 [Buspirone]	reasonable potency

Test system: 5-HT1A receptor
Assay: not given
Conditions: only at the 5-HT1A and dopamine receptors; cited from earlier work

Structure (SMILES)	interaction at 5-HT1A receptors
O=C1CC2(CCCC2)CC(=O)N1CCCCN1CCN(c2ncccn2)CC1 [Buspirone]	reasonable potency

Test system: M1-sites (muscarinic receptors)
Assay: not given
Conditions: cited from earlier work

Structure (SMILES)	selectivity for M1-sites
CN1CCN(CC(=O)N2c3ccccc3C(=O)Nc3cccnc32)CC1 [pirenzepine]	selective for M1 -sites
